# US6818146B2, “Chemical base for engine coolant/antifreeze with improved thermal stability properties” (Shell Oil Company, priority 2001, dated 2004)
# Like-named read-outs stand apart in the source and are kept apart here.
# Key:
# Physical property data = type: physicochemical
# [1] = Extended aging / oxidation comparison on D-4340 rig at 150° C.; type: physicochemical; details: 150° C. for 60 Days, two fully formulated coolant inhibition packages
# ASTM D1177 freeze point = type: physicochemical
# From the text: FIG. 1 illustrates the aqueous solution freeze point characteristics of the 1,3-propanediol and GM 6043 (EG). […] This could be an indication that actual protection against hard, damaging freezing is actually better, approaching the effective protection point of the EG-based product. […] We feel that the antifreeze properties of the chemistry are acceptable. Indeed a 50% solution would provide adequate protection against freezing in most geographies. TC in FIG. 1 is an internal designation for the PDO aqueous solutions at 50, 55, and 60 volume percent PDO.
# [2] = Toxicity LD50 data and review of MSDS
# [3] = 25° C.; cited from earlier work
compound,measurement,setting,value
"OCCO [EG, ethylene glycol]","Specific Gravity, 20° C.",Physical property data,1.115
same,Viscosity,Physical property data,17 cP
"OCCCO [PDO, 1,3-propanediol]",Degradation in terms of pH value and formation of oxidation by-products,[1],PDO degraded less
same,"Specific Gravity, 20° C.",Physical property data; 20° C.,1.0526
same,Viscosity,Physical property data; 20° C.,52 cP
same,State at the reported freeze point,ASTM D1177 freeze point,soft and slushy
same,Toxicity,[2],PDO offers low
"CC(O)CO (stereo not shown) [PG, propylene glycol]","Specific Gravity, 20° C.",Physical property data; 20° C.,1.032
same,Viscosity,Physical property data; 20° C.,49 cP
same,Thermal Conductivity,[3],0.119 BTU/hr-ft-F
